This assay concerns collagenase produced by Clostridium Histolyticum. Nature of the assay: Inhibition of collagenase activity (DQ-gelatin fluorescence). It counts as biochemical. The following applies: decrease in collagenase activity relative to the control. Here is the method:
The effect of an extract of wild yam on the inhibition of the activity of collagenase produced by Clostridium Histolyticum was evaluated. Although different from a human enzyme, this collagenase is used on account of its ability to digest human collagen. […]
The control consisted of collagenase without test product. Thus, the activity of the control constitutes 100% collagenase activity and thus 0% inhibition of the said activity.
The products were preincubated with the enzyme for 10 minutes at room temperature, and DQ-gelatin was then added and the fluorescence obtained on degradation of the substrate was recorded for 10 minutes (excitation 480 nm; emission 538 nm) on a SpectraMax spectrofluorimetre (Molecular Devices); the results were processed using Soft Max Pro software.
The percentages indicated represent the decrease in collagenase activity relative to the control.

As for `c1cnc2c(c1)ccc1cccnc12` [Phenanthroline, phenanthroline], the “% inhibition (n = 4)” value (0.1 mM in ethanol) worked out at 96%, the “% inhibition (n = 4)” value (0.25 mM in ethanol) is recorded as 40% and the “% inhibition (n = 4)” value (0.5 mM in ethanol) came out at 65%.

Source of the values: patent US20030152597A1, “Use of at least one sapogenin for prevening the skin or ageing symptoms” (priority 2000, published 2003).
